Results: ChEMBL document CHEMBL3045736, “Cobalt mediated ring contraction reaction of lapachol and initial antibacterial evaluation of naphthoquinones derived from lapachol” (2012)
Values after ≈ are worked out from the molar mass of the structure shown.

Tests used:
Format in all cases: functional
[1] = tested on: Staphylococcus aureus; assay: Antibacterial activity against Staphylococcus aureus after 24 hr by p-iodonitrotetrazolium assay
[2] = tested on: Escherichia coli; assay: Antibacterial activity against Escherichia coli after 24 hr by p-iodonitrotetrazolium assay
[3] = tested on: Mycobacterium tuberculosis; assay: Antimycobacterial activity against Mycobacterium tuberculosis by Bactec TB-460 assay
[4] = tested on: Bacillus cereus; assay: Antibacterial activity against Bacillus cereus after 24 hr by p-iodonitrotetrazolium assay

CC(C)=CCC1=C(O)C(=O)c2ccccc2C1=O [LAPACHOL]
MIC [1]: > 78.1 µg/mL | MIC [2]: > 78.1 µg/mL | MBC [3]: 646 µM (≈ 156 µg/mL) | MIC [3]: 161 µM (≈ 39.1 µg/mL) | MIC [4]: > 78.1 µg/mL

CC1(C)CCC2=C(O1)c1ccccc1C(=O)C2=O [LAPACHONE]
MIC [1]: 161 µM | MIC [2]: 161 µM | MBC [3]: 80.7 µM (≈ 19.6 µg/mL) | MIC [3]: 20.2 µM (≈ 4.89 µg/mL) | MIC [4]: 161 µM

CC(C)(O[N+](=O)[O-])C1CC2=C(O1)C(=O)c1ccccc1C2=O (stereo not drawn)
MIC [1]: 272 µM | MIC [2]: > 78.1 µg/mL | MBC [3]: 136 µM (≈ 41.3 µg/mL) | MIC [3]: 34 µM (≈ 10.3 µg/mL) | MIC [4]: > 78.1 µg/mL

CC(C)=CCC1(O)C(=O)c2ccccc2C1=O
MIC [1]: 240 µM | MIC [2]: > 78.1 µg/mL | MBC [3]: 240 µM (≈ 55.2 µg/mL) | MIC [3]: 120 µM (≈ 27.6 µg/mL) | MIC [4]: > 78.1 µg/mL

GENTAMICIN
MIC [1]: 7.2 µM | MIC [2]: 3.6 µM | MIC [4]: 3.6 µM

C=C(C)c1cc2c(o1)C(=O)c1ccccc1C2=O
MIC [1]: 328 µM | MIC [2]: 328 µM | MBC [3]: 164 µM (≈ 39.1 µg/mL) | MIC [3]: 41 µM (≈ 9.77 µg/mL) | MIC [4]: > 78.1 µg/mL

C=C(C)C1CC2=C(O1)C(=O)c1ccccc1C2=O (stereo not drawn) [DEHYDROISO-ALPHA-LAPACHONE]
MIC [1]: 326 µM | MIC [2]: > 78.1 µg/mL | MBC [3]: 81.4 µM (≈ 19.6 µg/mL) | MIC [3]: 40.7 µM (≈ 9.77 µg/mL) | MIC [4]: > 78.1 µg/mL

CC(=O)c1cc2c(o1)C(=O)c1ccccc1C2=O [NAPABUCASIN]
MIC [1]: 326 µM | MIC [2]: > 78.1 µg/mL | MBC [3]: 163 µM (≈ 39.1 µg/mL) | MIC [3]: 40.7 µM (≈ 9.77 µg/mL) | MIC [4]: > 78.1 µg/mL

NNC(=O)c1ccncc1 [ISONIAZID]
MBC [3]: 1.75 µM (≈ 0.24 µg/mL) | MIC [3]: 0.88 µM (≈ 0.121 µg/mL)

O=CCC1=C(O)C(=O)c2ccccc2C1=O
MIC [1]: > 78.1 µg/mL | MIC [2]: > 78.1 µg/mL | MBC [3]: 723 µM (≈ 156 µg/mL) | MIC [3]: 362 µM (≈ 78.2 µg/mL) | MIC [4]: > 78.1 µg/mL

CC(=O)OC=CC1=C(O)C(=O)c2ccccc2C1=O
MIC [1]: > 78.1 µg/mL | MIC [2]: > 78.1 µg/mL | MIC [4]: > 78.1 µg/mL
